Source: patent US20110150961A1, “ANTI-INFECTIVE CATHETERS” (priority 2008, published 2011)
In brackets after ≈: the same amount, converted by molar mass. Several values for one entry are separate records, joined by “and”; a condition that tells them apart may be missing. Equal values may be shown once. Read-outs that look alike come from different tables or passages of the source.

How the values were obtained:
S. aureus [1] = test: MIC testing by broth microdilution, clinical isolates (Example 4); format: cell-based
Procedure: (§1) The Gram-positive organisms tested were S. epidermidis, methicillin resistant S. epidermidis (MRSE), S. aureus, methicillin resistant S. aureus (MRSA), E. faecalis and vancomycin resistant E. faecalis, the Gram-negative organisms tested were P. aeruginosa, E. coli and K. pneumoniae .
(§2) For MIC testing, all isolates were tested against 5-FU by broth microdilution following CLSI methodology (M7-A7).

K. pneumoniae [2] = test: as above; format: cell-based; settings: Klebsiella pneumoniae, N=104
Procedure: as §1, §2

E. coli [3] = test: as above; format: cell-based; settings: Escherichia coli, N=102
Procedure: as §1, §2

E. faecalis [4] = test: as above; format: cell-based
Procedure: as §1, §2

S. epidermidis [5] = test: as above; format: cell-based
Procedure: as §1, §2

P. aeruginosa [6] = test: as above; format: cell-based; settings: Pseudomonas aeruginosa, N=100
Procedure: as §1, §2

Gram-negative isolates = test: MIC testing by broth microdilution, summary (Example 4); format: cell-based; settings: range over organisms
Procedure: as §1, §2

Gram-positive organisms = test: as above; format: cell-based; settings: range over organisms
Procedure: as §1, §2

S. aureus [7] = test: Broth microdilution MIC and MBC (Example 9); format: cell-based
Procedure: (§3) Minimal bactericidal concentrations (MBCs) were determined for bacterial isolates associated with catheter-related infections (Attachment 18.18). Broth microdilution MBCs were determined by first performing the standard broth microdilution technique to establish the 5-FU MIC for each organism (CLSI M7-A7). […] were sampled to determine the MBC as defined as the concentration at which a ≧99.9% reduction in the colony forming units relative to the starting inoculum concentration was achieved. When the MBC:MIC ratio for 5-FU was […].

K. pneumoniae [8] = test: Broth microdilution MIC and MBC (Example 9); format: cell-based
Procedure: as §3

E. coli [9] = test: Broth microdilution MIC and MBC (Example 9); format: cell-based
Procedure: as §3

E. faecalis [10] = test: Broth microdilution MIC and MBC (Example 9); format: cell-based
Procedure: as §3

S. epidermidis [11] = test: Broth microdilution MIC and MBC (Example 9); format: cell-based
Procedure: as §3

P. aeruginosa [12] = test: Broth microdilution MIC and MBC (Example 9); format: cell-based
Procedure: as §3

[13] = tested on: S. epidermidis and S. aureus
From the text: Microbial resistance is a concern associated with repeated exposure to anti-microbial agents.

[14] = IV, cited from earlier work
S. aureus ATCC 25923 = test: MIC and MBC on ATCC control strains (Example 10); format: cell-based; settings: Staphylococcus aureus
From the text: (§4) The Gram-positive organisms tested were S. epidermidis ATCC 12228, S. aureus ATCC 25923, and E. faecalis ATCC 29212. The Gram-negative strains tested were P. aeruginosa ATCC 27853, K. pneumonia ATCC 700603 and E. coli ATCC 25922.

[15] = tested on: S. epidermidis ATCC 12228; test: MIC and MBC on ATCC control strains (Example 10); format: cell-based; settings: Staphylococcus epidermidis
From the text: as §4

P. aeruginosa ATCC 27853 = test: MIC and MBC on ATCC control strains (Example 10); format: cell-based; settings: Pseudomonas aeruginosa
From the text: as §4

E. faecalis ATCC 29212 = test: MIC and MBC on ATCC control strains (Example 10); format: cell-based; settings: Enterococcus faecalis
From the text: as §4

K. pneumonia ATCC 700603 = test: MIC and MBC on ATCC control strains (Example 10); format: cell-based, K. pneumoniae; settings: Klebsiella pneumoniae
From the text: as §4

mammalian species = mammalian species (PDR 1998); cited from earlier work
K. pneumoniae [16] = test: Multi-organism zone-of-inhibition screening (Example 15); format: cell-based; settings: 24 hr, one sample per plate, antibiotic disks 6 mm (Gentamicin 10 μg, penicillin 10 units)
Procedure: (§5) The 5-FU CVC was compared with the commercially available Arrow CVC. Gentamicin (10 μg) or penicillin (10 units) disks were used as positive controls and CVC was used as the negative control. The samples were challenged with 3 species of Gram-positive bacteria, 4 species of Gram-negative bacteria and 1 type of yeast. The organisms used to challenge the samples were the following ATCC strains: S. aureus, Methicillin Resistant Staphylococcus aureus (MRSA), S. epidermidis, K. pneumoniae, and Vancomycin Resistant Pediococcus (VRP), E. coli, P. aeruginosa and C. albicans.
(§6) Organisms were inoculated into 2 mL of liquid agar, which was poured on top of solidified agar. One plate was made per organism. Test articles were inserted into the agar when the plates were solidified and dry. ZOI results were recorded at 24 hr. […] Each plate also contained one negative and one positive control sample and 1 Arrow CVC sample.

[17] = tested on: Methicillin Resistant Staphylococcus aureus (MRSA); test: as above; format: cell-based; settings: 24 hr, one sample per plate, antibiotic disks 6 mm (Gentamicin 10 μg, penicillin 10 units)
Procedure: as §5, §6

E. coli [18] = test: as above; format: cell-based; settings: 24 hr, one sample per plate, antibiotic disks 6 mm (Gentamicin 10 μg, penicillin 10 units)
Procedure: as §5, §6

P. aeruginosa [19] = test: as above; format: cell-based; settings: 24 hr, one sample per plate, antibiotic disks 6 mm (Gentamicin 10 μg, penicillin 10 units)
Procedure: as §5
Organisms were inoculated into 2 mL of liquid agar, which was poured on top of solidified agar. One plate was made per organism. Test articles were inserted into the agar when the plates were solidified and dry. ZOI results were recorded at 24 hr. Three 0.5-cm sections of the 5-FU CVC were tested on each plate. Each plate also contained one negative and one positive control sample and 1 Arrow CVC sample.

O=c1[nH]cc(F)c(=O)[nH]1 [5-FU, 5-fluorouracil] showed an MIC50 (S. aureus [1]; Oxacillin-R, N=40) of 0.12 µg/mL (≈ 0.923 µM), an MIC50 (S. aureus [1]; Oxacillin-S, N=61) of 0.12 µg/mL (≈ 0.923 µM) and an MIC90 (S. aureus [1]; Staphylococcus aureus, Oxacillin-R, N=40) of 0.12 µg/mL (≈ 0.923 µM). The MIC90 (S. aureus [1]; Staphylococcus aureus, Oxacillin-S, N=61) was 0.25 µg/mL (≈ 1.92 µM), the MIC90 (S. aureus [1]; Staphylococcus aureus, all, N=101) was 0.25 µg/mL (≈ 1.92 µM) and the MIC50 (S. aureus [1]; Staphylococcus aureus, all, N=101, read-out: MIC50) was 0.12 µg/mL (≈ 0.923 µM). For the same compound, the MIC50 (K. pneumoniae [2]) was 128 µg/mL (≈ 984 µM), the MIC90 (K. pneumoniae [2]) was > 512 µg/mL and the MIC50 (E. coli [3]) was 32 µg/mL (≈ 246 µM). The MIC90 (E. coli [3]) was 64 µg/mL (≈ 492 µM), the MIC50 (E. faecalis [4]; Enterococcus faecalis, all, N=101, read-out: MIC50) was 0.015 µg/mL (≈ 0.115 µM) and the MIC90 (E. faecalis [4]; Enterococcus faecalis, all, N=101, read-out: MIC90) was 0.06 µg/mL (≈ 0.461 µM). The MIC50 (E. faecalis [4]; Vancomycin-R, N=21) was 0.015 µg/mL (≈ 0.115 µM), the MIC90 (E. faecalis [4]; Vancomycin-R, N=21) was 0.06 µg/mL (≈ 0.461 µM) and the MIC50 (E. faecalis [4]; Vancomycin-S, N=80) was 0.015 µg/mL (≈ 0.115 µM). For the same compound, the MIC90 (E. faecalis [4]; Vancomycin-S, N=80) was 0.06 µg/mL (≈ 0.461 µM), the MIC50 (S. epidermidis [5]; Oxacillin-R, N=78) was 0.06 µg/mL (≈ 0.461 µM) and the MIC50 (S. epidermidis [5]; Oxacillin-S, N=22) was 0.06 µg/mL (≈ 0.461 µM). It also gave an MIC90 (S. epidermidis [5]; Staphylococcus epidermidis, Oxacillin-R, N=78) of 0.5 µg/mL (≈ 3.84 µM), an MIC90 (S. epidermidis [5]; Staphylococcus epidermidis, Oxacillin-S, N=22) of 0.12 µg/mL (≈ 0.923 µM) and an MIC90 (S. epidermidis [5]; Staphylococcus epidermidis, all, N=100) of 0.25 µg/mL (≈ 1.92 µM). It also gave an MIC50 (S. epidermidis [5]; Staphylococcus epidermidis, all, N=100, read-out: MIC50) of 0.06 µg/mL (≈ 0.461 µM), an MIC50 (P. aeruginosa [6]) of 16 µg/mL (≈ 123 µM) and an MIC90 (P. aeruginosa [6]) of 64 µg/mL (≈ 492 µM). The MIC50 (Gram-negative isolates) was 16 to 128 µg/mL (≈ 123 to 984 µM), the MIC50 (Gram-positive organisms) was 0.015 to 0.12 µg/mL (≈ 0.115 to 0.923 µM) and the MIC range (S. aureus [7]; S. aureus, 11 strains) was 0.03 to 0.25 µg/mL. The “bactericidal, number of strains” value (S. aureus [7]; S. aureus, by MBC:MIC ratio) was 4 of the 11, the MBC range (S. aureus [7]; S. aureus, ≧99.9% reduction in CFU) was 0.12 to 32 µg/mL and the MIC (S. aureus [7]; Staphylococcus aureus, methicillin resistant S. aureus, N=5, read-out: averaged MIC) was 0.12 µg/mL (≈ 0.923 µM). The MBC (K. pneumoniae [8]; Klebsiella pneumoniae, ≧99.9% reduction in CFU, read-out: MBC (all strains)) was > 512 µg/mL, the bactericidal activity (K. pneumoniae [8]; by MBC:MIC ratio) was “no bactericidal activity” and the MIC range (E. coli [9]; 10 strains) was 0.25 to 64 µg/mL. For the same compound, the “bactericidal, number of strains” value (E. coli [9]; by MBC:MIC ratio) was 1 of the 10, the MIC range (E. faecalis [10]; 10 strains) was 0.008 to 0.12 µg/mL and the “bactericidal, number of strains” value (E. faecalis [10]; by MBC:MIC ratio) was 8 of the 10. For the same compound, the MBC range (E. faecalis [10]; ≧99.9% reduction in CFU) was 0.008 to 0.25 µg/mL, the MIC range (S. epidermidis [11]; S. epidermidis, 10 strains) was 0.03 to 0.25 µg/mL and the “bactericidal, number of strains” value (S. epidermidis [11]; S. epidermidis, by MBC:MIC ratio) was 6 of the 11. For the same compound, the MBC range (S. epidermidis [11]; S. epidermidis, ≧99.9% reduction in CFU) was 0.03 to 0.25 µg/mL, the MIC (S. epidermidis [11]; Staphylococcus epidermidis, methicillin resistant S. epidermidis, N=8, read-out: averaged MIC) was 0.08 µg/mL (≈ 0.615 µM) and the MBC (P. aeruginosa [12]; Pseudomonas aeruginosa, ≧99.9% reduction in CFU, read-out: MBC (all strains)) was > 512 µg/mL. The bactericidal activity (P. aeruginosa [12]; by MBC:MIC ratio) was “no bactericidal activity”, the “Historical 5-FU MIC values” [13] was 0.06 to 0.12 µg/mL and the plasma levels ([14]; continuous infusion) was “about 10 μM”. The plasma concentrations ([14]; rapid infusion) was 0.1-1.0 mM and 13-130 μg/ml, the MBC (S. aureus ATCC 25923; ATCC25923, read-out: MBC) was 1.23 µg/mL (≈ 9.46 µM) and the MIC (S. aureus ATCC 25923; ATCC25923, read-out: MIC) was 1.23 µg/mL (≈ 9.46 µM). The MBC ([15]; ATCC12228, read-out: MBC) was 0.41 µg/mL (≈ 3.15 µM), the MIC ([15]; ATCC12228, read-out: MIC) was 0.14 µg/mL (≈ 1.08 µM) and the MBC (P. aeruginosa ATCC 27853; ATCC27853, read-out: MBC) was > 100 µg/mL. The MIC (P. aeruginosa ATCC 27853; ATCC27853, read-out: MIC) was > 100 µg/mL, the MBC (E. faecalis ATCC 29212; ATCC29212, read-out: MBC) was 3.7 µg/mL (≈ 28.4 µM) and the MIC (E. faecalis ATCC 29212; ATCC29212, read-out: MIC) was 3.7 µg/mL (≈ 28.4 µM). The MBC (K. pneumonia ATCC 700603; ATCC700603, read-out: MBC) was > 100 µg/mL, the MIC (K. pneumonia ATCC 700603; ATCC700603, read-out: MIC) was 100 µg/mL (≈ 769 µM) and the LD50 (mammalian species) was 94 to 880 mg/kg.
With Gentamicin the ZOI (K. pneumoniae [16]) was 9.5 mm, the ZOI [17] was 7.1 mm and the ZOI (E. coli [18]) was 10.5 mm. It also gave a ZOI (P. aeruginosa [19]) of 12.5 mm.
